Reference: patent US8410284B2, “Cyclic benzimidazole derivatives useful as anti-diabetic agents” (Merck Sharp & Dohme Corp, priority 2008, dated 2013)

Molecular target: recombinant human AMPK complex 1 (containing α1β1γ1) (Homo sapiens, UniProt Q13131+Q9Y478)
Test: In vitro AMPK activation assay (AMPKSAMSF)
Type: biochemical
Conditions: recombinant human AMPK complex 1 (α1β1γ1); for Emax: read-out: maximum AMP activation; for % Maximum AMP Activation of human AMPK Complex 1: basal activity subtracted
Procedure: AMPKSAMSF (In Vitro AMPK Activation Assay)
The recombinant human AMPK complex 1 (containing α1β1γ1) was obtained from baculovirus expression system. Recombinant viruses were generated by cotransfection of AMPK/pBacPak9 clones with Baculogold baculovirus DNA (Pharmingen) in spodoptera frugiperda 21 cells according to the manufacturer's instructions. Each round of virus amplification was performed for 5 days in Grace's medium containing 10% serum. Virus that had been subjected to three rounds of amplification was used for all protein production procedures. To express the AMPK complex, sf21 cells were adapted to serum free medium (SF900 II, Invitrogen) by sequential dilution from serum containing stocks into SF900 II medium and maintained in shaker flasks at 90 rpm at 27° C. The recombinant AMPK enzyme complex was produced by triple infection, one recombinant virus for each of the subunits, in sf21 cells under serum free conditions. Cells were infected in log phase, 1×10^6 cells/ml, at a multiplicity of infection of ˜5. Cells were harvested by centrifugation at 10,000×g for 15 minutes after 72 hours of infection with viruses. The insect cell pellet from 2 liters of culture was resuspended in 50 ml lysis buffer (20 mM Tris-HCl, 50 mM NaCl, 50 mM NaF, 30 mM Na PPi, 0.25 M sucrose, 10 mM ZnCl2, 2 mM DTT, 0.4 mg/ml digitonin) and subjected to two cycles of freeze-thaw lysis in a dry-ice ethanol bath. Insoluble material was removed by centrifugation at 10,000×g and the supernatant was fractionated with use of polyethylene glycol (PEG). The protein fraction precipitating between 2.5 and 6% PEG was used for further purification using a Blue-Sepharose step (Zhou et al, J. Clin. Invest. 108, 1167-1174, 2001).
The total in vitro AMPK activation assay volume is 50 μl in a 96-well plate. The reaction mixture contained 100 μM ATP (0.5 μCi ^33P-ATP per reaction), and 50 μM SAMS (HMRSAMSGLHLVKRR) in a buffer (20 mM HEPES, pH 7.0, 5 mM MgCl2, 0.01% Brij35). The reaction was initiated with addition of the enzyme. After 30-minute incubation at 30° C., the reaction was stopped by addition of 80 μl 1% H3PO4. Aliquots (100 μl) were transferred to 96-well MultiScreen plates (MAPHNOB50; Millipore Corp., Bedford, Mass., USA). The plate was washed three times with 1% H3PO4 followed by detection in a Top-count. The counts per minute from the basal activity (the reaction without activator) was subtracted from each well and the data were expressed as % maximum AMP activation followed by EC50 calculation.

Sequence of recombinant human AMPK complex 1 (containing α1β1γ1) (Q13131 whole entry): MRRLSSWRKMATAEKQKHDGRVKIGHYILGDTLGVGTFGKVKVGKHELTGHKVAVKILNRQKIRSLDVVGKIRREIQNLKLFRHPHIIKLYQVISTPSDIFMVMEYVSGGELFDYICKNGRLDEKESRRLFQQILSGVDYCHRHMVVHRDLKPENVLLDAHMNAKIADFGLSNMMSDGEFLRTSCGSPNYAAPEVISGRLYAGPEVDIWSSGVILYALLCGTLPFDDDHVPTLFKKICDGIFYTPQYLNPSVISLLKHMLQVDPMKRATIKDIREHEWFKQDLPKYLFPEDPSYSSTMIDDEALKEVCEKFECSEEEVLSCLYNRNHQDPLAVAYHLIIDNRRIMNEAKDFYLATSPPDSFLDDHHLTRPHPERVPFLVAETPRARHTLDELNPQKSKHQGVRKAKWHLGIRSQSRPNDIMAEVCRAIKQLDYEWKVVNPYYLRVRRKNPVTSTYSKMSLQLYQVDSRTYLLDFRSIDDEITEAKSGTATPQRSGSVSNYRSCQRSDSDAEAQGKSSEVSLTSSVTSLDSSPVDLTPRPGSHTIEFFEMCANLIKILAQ
Sequence of recombinant human AMPK complex 1 (containing α1β1γ1) (Q9Y478 whole entry): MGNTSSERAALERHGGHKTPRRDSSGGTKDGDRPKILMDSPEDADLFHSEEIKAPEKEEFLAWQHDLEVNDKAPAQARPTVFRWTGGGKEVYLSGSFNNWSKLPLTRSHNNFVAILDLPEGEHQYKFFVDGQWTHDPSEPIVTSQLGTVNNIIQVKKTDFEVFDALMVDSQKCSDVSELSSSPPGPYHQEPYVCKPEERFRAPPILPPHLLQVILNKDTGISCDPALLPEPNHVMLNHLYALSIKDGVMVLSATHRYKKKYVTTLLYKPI
Sequence of recombinant human AMPK complex 1 (containing α1β1γ1) (P54619 whole entry partner): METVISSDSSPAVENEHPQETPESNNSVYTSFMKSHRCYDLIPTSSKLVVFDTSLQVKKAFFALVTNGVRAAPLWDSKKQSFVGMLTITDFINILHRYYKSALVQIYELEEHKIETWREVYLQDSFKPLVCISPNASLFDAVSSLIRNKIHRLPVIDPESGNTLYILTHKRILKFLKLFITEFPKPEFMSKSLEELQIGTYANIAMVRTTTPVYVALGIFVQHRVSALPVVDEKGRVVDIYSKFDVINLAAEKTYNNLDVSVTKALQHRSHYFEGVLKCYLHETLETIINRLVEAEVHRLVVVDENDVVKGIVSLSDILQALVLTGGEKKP

SMILES	Emax	EC50	% Maximum AMP Activation of human AMPK Complex 1
O=P(O)(O)c1cccc(C(F)(F)c2nc3cc(-c4ccc(-c5ccccc5)cc4)c(Cl)cc3[nH]2)c1 [Example 15, {3-[(5-biphenyl-4-yl-6-chloro-1H-benzimidazol-2-yl)(difluoro)methyl]phenyl}phosphonic acid]	> 80%	–	–
CCOC(=O)CNP(=O)(NCC(=O)OCC)c1cc(Oc2nc3cc(-c4ccc5c(ccn5C)c4)c(Cl)cc3[nH]2)ccc1C [Example 27, {[6-Chloro-5-(1-methyl-1H-indol-5-yl)-1-H-benzimidazol-2-yl]oxo}-4-methylphen-3-ylphosphono-bis-2-amino-ethanoic acid ethyl ester]	> 80%	–	–
Cc1ccc(Oc2nc3cc(-c4ccc(-c5ccccc5)cc4)c(Cl)cc3[nH]2)cc1[P@@]1(=O)OCC[C@H](c2ccncc2)O1 (relative stereo) [Example 21, Trans-5-Biphenyl-4-yl-6-chloro-2-[4-methyl-3-(2-oxo-4-pyridin-4-yl-2lambda*5*-[1,3,2]dioxophosphinan-2-yl)-phenoxy]-1H-benzoimidazole]	> 80%	–	–
Cc1ccc(Oc2nc3cc(-c4ccc(-c5ccccc5)cc4)c(Cl)cc3[nH]2)cc1[P@@]1(=O)OCC[C@H](c2cccc(Cl)c2)O1 (relative stereo) [Example 19, Trans-5-Biphenyl-4-yl-6-chloro-2-[3-[4-(3-chloro-phenyl)-2-oxo-2-lambda*5*-[1,3,2]dioxaphosphinan-2-yl]-4-methyl-phenoxy]-1H-benzoimidazole]	> 80%	–	–
O=P(O)(O)c1cccc(Oc2nc3cc(-c4ccc(N5CCOCC5)cc4)c(Cl)cc3[nH]2)c1 [Example 7, {3-[6-Chloro-5-(4-morpholin-4-yl-phenyl)-1H-benzoimidazol-2-yloxy]phenyl}phosphonic acid]	> 80%	–	–
CCOP(C)(=O)c1cccc(Oc2nc3cc(-c4ccc(-c5ccccc5)cc4)c(Cl)cc3[nH]2)c1 (stereo not shown) [Example 17, [3-(5 Biphenyl-4-yl-6-chloro-1H-benzoimidazol-2-yloxy)-phenyl]-methyl-phosphinic acid ethyl ester]	> 80%	–	–
O=P1(c2cccc(Oc3nc4cc(-c5ccc(-c6ccccc6)cc5)c(Cl)cc4[nH]3)c2)OCCC(c2ccncc2)O1 [Example 26, Cis-5-Biphenyl-4-yl-6-chloro-2-[3-((S)-2-oxo-4-pyridin-4-yl-2lambda*5*-[1,3,2]dioxophosphinan-2-yl)-phenoxy]-1H-benzoimidazole]	> 80%	–	–
COc1ccc(C#Cc2cc3nc(Oc4ccc(C)c(P(=O)(O)O)c4)[nH]c3cc2Cl)cc1 [Example 10, 5-(5-chloro-6-(2-(4-methoxyphenyl)ethynyl)-1H-benzo[d]imidazol-2-yloxy)-2-methylphenylphosphonic acid]	> 80%	–	–
Cc1ccc(Oc2nc3cc(-c4ccc(N5CCCC5)cc4)c(Cl)cc3[nH]2)cc1P(=O)(O)O [Example 6, {5-[6-Chloro-5-(4-pyrrolidin-1-yl-phenyl)-1H-benzoimidazol-2-yloxy]-2-methyl-phenyl}phosphonic acid]	> 80%	1.1 nM	223%
Cc1ccc(Oc2nc3cc(-c4ccc(N5CCOCC5)cc4)c(Cl)cc3[nH]2)cc1P(=O)(O)O [Example 8, 5-(5-chloro-6-(4-morpholinophenyl)-1H-benzo[d]imidazol-2-yloxy)-2-methylphenylphosphonic acid]	–	1.2 nM	224%
Cc1ccc(Oc2nc3cc(-c4ccc(-c5ccccc5)cc4)c(Cl)cc3[nH]2)cc1[P@@]1(=O)OCC[C@@H](c2ccncc2)O1 (relative stereo) [Example 22, Cis-5-Biphenyl-4-yl-6-chloro-2-[4-methyl-3-(2-oxo-4-pyridin-4-yl-2lambda*5*-[1,3,2]dioxophosphinan-2-yl)-phenoxy]-1H-benzoimidazole]	> 80%	–	–
O=[P@@]1(c2cccc(Oc3nc4cc(-c5ccc(-c6ccccc6)cc5)c(Cl)cc4[nH]3)c2)OCC[C@@H](c2cccc(Cl)c2)O1 (relative stereo) [Example 23, Trans-5-Biphenyl-4-yl-6-chloro-2-[3-4-(3-chloro-phenyl)-2-oxo-2-lambda*5*-[1,3,2]dioxaphosphinan-2-ylphenoxy]-1H-benzoimidazole]	> 80%	–	–
O=C(c1cccc(P(=O)(O)O)c1)c1nc2cc(-c3ccc(-c4ccccc4)cc3)c(Cl)cc2[nH]1 [Example 14, {3-[(5-biphenyl-4-yl-6-chloro-1H-benzimidazol-2-yl)carbonyl]phenyl}phosphonic acid]	> 80%	–	–
O=P1(c2cccc(Oc3nc4cc(-c5ccc(-c6ccccc6)cc5)c(Cl)cc4[nH]3)c2)OCCC(c2cccc(Cl)c2)O1 (stereo not drawn) [Example 24, Cis-5-Biphenyl-4-yl-6-chloro-2-[3-4-(3-chloro-phenyl)-2-oxo-2-lambda*5*-[1,3,2]dioxaphosphinan-2-ylphenoxy]-1H-benzoimidazole]	> 80%	–	–
Cc1ccc(Oc2nc3cc(-c4ccc(N5CCOCC5)cc4)c(Cl)cc3[nH]2)cc1P(=O)(O)O [Example 4, {5-[6-Chloro-5-(4-morpholin-4-yl-phenyl)-1H-benzoimidazol-2-yloxy]-2-methylphenyl}-phosphonic acid]	> 80%	–	–
Cc1ccc(Oc2nc3cc(-c4ccc5c(ccn5C)c4)c(Cl)cc3[nH]2)cc1P(=O)(O)O [Example 9, 5-(5-chloro-6-(1-methyl-1H-indol-5-yl)-1H-benzo[d]imidazol-2-yloxy)-2-methylphenylphosphonic acid]	> 80%	–	–
CP(=O)(O)c1cccc(Oc2nc3cc(-c4ccc(-c5ccccc5)cc4)c(Cl)cc3[nH]2)c1 [Example 18, [3-(5-Biphenyl-4-yl-6-chloro-1H-benzoimidazol-2-yloxy)-phenyl]-methyl-phosphinic acid]	> 80%	–	–
O=P(O)(O)c1cccc(Oc2nc3cc(-c4ccc(-c5ccccc5)cc4)c(F)cc3[nH]2)c1 [Example 13, {3-[(5-biphenyl-4-yl-6-fluoro-1H-benzimidazol-2-yl)oxy]phenyl}phosphonic acid]	> 80%	–	–
Cn1ccc2cc(-c3cc4nc(Oc5cccc(P(=O)(O)O)c5)[nH]c4cc3Cl)ccc21 [Example 16, (3-{[6-chloro-5-(1-methyl-1H-indol-5-yl)-1H-benzimidazol-2-yl]oxy}phenyl)phosphonic acid]	> 80%	0.6 nM	173%
Cc1ccc(Oc2nc3cc(-c4ccc(C5CCCCC5)cc4)c(Cl)cc3[nH]2)cc1P(=O)(O)O [Example 5, {5-[6-Chloro-5-(4-cyclohexyl-phenyl)-1H-benzoimidazol-2-yloxy]-2-methylphenyl}phosphonic acid]	> 80%	4.9 nM	257%
O=[P@@]1(c2cccc(Oc3nc4cc(-c5ccc(-c6ccccc6)cc5)c(Cl)cc4[nH]3)c2)OCC[C@@H](c2ccncc2)O1 [Example 25, Trans-5-Biphenyl-4-yl-6-chloro-2-trans-[3-((S)-2-oxo-4-pyridin-4-yl-2lambda*5*-[1,3,2]dioxophosphinan-2-yl)-phenoxy]-1H-benzoimidazole]	> 80%	–	–
O=P(O)(O)c1cncc(Oc2nc3cc(-c4ccc(-c5ccccc5)cc4)c(Cl)cc3[nH]2)c1 [Example 12, [5-(5-Biphenyl-4-yl-6-chloro-1H-benzoimidazol-2-yloxy)-pyridin-3-yl]-phoshponic acid]	> 80%	–	–
Cc1ccc(Oc2nc3cc(C#Cc4ccccc4)c(Cl)cc3[nH]2)cc1P(=O)(O)O [Example 3, ((6-Chloro-5-phenylethynyl-1H-benzimidazol-2-yl)oxo)-4-methylphen-3-ylphosphonic acid]	> 80%	0.7 nM	192%
Cc1ccc(Oc2nc3cc(-c4ccc(-c5ccccc5)cc4)c(Cl)cc3[nH]2)cc1[P@@]1(=O)OCC[C@@H](c2cccc(Cl)c2)O1 (relative stereo) [Example 20, Cis-5-Biphenyl-4-yl-6-chloro-2-[3-[4-(3-chloro-phenyl)-2-oxo-2-lambda*5*-[1,3,2]dioxaphosphinan-2-yl]4-methyl-phenoxy]-1H-benzoimidazole]	> 80%	–	–
CCOC(=O)CNP(=O)(NCC(=O)OCC)c1cc(Oc2nc3cc(-c4ccc(C5CCCCC5)cc4)c(Cl)cc3[nH]2)ccc1C [Example 28, {[6-Chloro-5-(4-cyclohexylphenyl)-1H-benzoimidazol-2-yl]oxo}-4-methylphen-3-ylphosphono-bis-2-amino-ethanoic acid ethyl ester]	> 80%	–	–
